Structures can show the parent of a compound that is named as a salt. Where two headings read alike, the source gives them in different places.

Assay [1] has as its system Strep. faecalis 10541. Kind of assay: in vitro antibiotic activity, two-fold agar dilution (MIC). The format is cell-based. How it is done:
(§1) The in vitro activity of 3-demethoxyfortimicin A of Example 10 is determined by a two-fold dilution test using 10 ml. of Mueller-Hinton agar per Petri plate. The agar plates are innoculated with approximately 1×10^5 of the test organisms indicated in Table II, delivered to the agar surface by a Steers replicator. The innoculated plates are incubated for 24 hours at 35° C. in the presence of varying concentrations of 3-demethoxyfortimicin A tetrahydrochloride of Example 10 or fortimicin A sulfate as a comparative antibiotic.
On the technique in general: In agar dilution the substance is mixed into plates at graded concentrations.

The subject of assay [2] is Enterobacter aerogenes 13048. Described as above. Type of assay: cell-based. The protocol: as §1
For assay [3], the system named is Providencia 1577. The assay is described as above. Type of assay: cell-based. The protocol: as §1
Assay [4] concerns Serratia marcescens 4003. The assay is described as above. The format is cell-based. The protocol:
as §1

The subject of assay [5] is Pseudo. aeruginosa KY 8516. Described as above. The note with it: Pseudomonas aeruginosa. Type of assay: cell-based. How it is done:
as §1

The subject of assay [6] is Pseudo. aeruginosa BMH #10. Described as above. Type of assay: cell-based. The note with it: Pseudomonas aeruginosa. How it is done: as §1
Assay [7] relates to Proteus rettgeri U6333. Described as above. Type of assay: cell-based. The note with it: Providencia rettgeri. How it is done:
as §1

The test system of assay [8] is Staph. aureus Smith. Described as above. The note with it: Staphylococcus aureus. The format is cell-based. How it is done:
as §1

Assay [9] has as its system E. coli JUHL. The assay is described as above. The format is cell-based. Conditions: Escherichia coli. The protocol:
as §1

Assay [10] has as its system E. coli BL 3676 (Res). The assay is described as above. The format is cell-based. Conditions: Escherichia coli. The protocol: as §1
Assay [11] concerns Shigella sonnei 9290. Described as above. The note with it: Mueller-Hinton agar, 24 hours, 35° C. Type of assay: cell-based. The protocol: as §1
Assay [12] deals with Proteus mirabilis Fin. #9. The description is as above. Type of assay: cell-based. The protocol: as §1
The test system of assay [13] is Pseudo. aeruginosa KY 8512. The assay is described as above. Type of assay: cell-based. Conditions: Pseudomonas aeruginosa. The protocol:
as §1

For assay [14], the system named is Kleb. pneumoniae KY 4262. The assay is described as above. The format is cell-based. The note with it: Klebsiella pneumoniae. The protocol: as §1
Assay [15] relates to Proteus vulgaris JJ. Described as above. The format is cell-based. How it is done: as §1
Assay [16] concerns Sal. typhimurium Ed. #9. The description is as above. Type of assay: cell-based, Salmonella typhimurium. The note with it: Salmonella enterica. The protocol: as §1
Assay [17] deals with Kleb. pneumoniae 10031. Described as above. The format is cell-based, Klebsiella pneumoniae. The protocol: as §1
In assay [18] the test system is Pseudo. aeruginosa 209. The description is as above. The format is cell-based, Pseudomonas aeruginosa. The protocol:
as §1

The subject of assay [19] is Pseudo aeruginosa 27853. The description is as above. Type of assay: cell-based, Pseudomonas aeruginosa. How it is done: as §1
Assay [20] relates to strains tested (Table II). Kind of assay: overall antibiotic activity relative to fortimicin A sulfate. The format is cell-based. The protocol: as §1
Assay [21] concerns E. coli 76-2. Kind of assay: in vitro antibiotic activity, two-fold agar dilution (MIC). The format is cell-based, Escherichia coli. The protocol:
as §1

A word on the MIC: it is the smallest concentration in the dilution series that meets the test's criterion for growth inhibition. For the molecule `CC(N)C1CCC(N)C(OC2C(N)C(O)CC(N(C)C(=O)CN)C2O)O1` (stereo not drawn) [3-Demethoxyfortimicin A tetrahydrochloride], the MIC was determined as 25 µg/mL in assay [1] (Enterococcus faecalis, Strep. faecalis 10541, Mueller-Hinton agar, 24 hours, 35° C., read-out: MIC); 3.1 µg/mL in assay [2] (Klebsiella aerogenes, Enterobacter aerogenes 13048, Mueller-Hinton agar, 24 hours, 35° C., read-out: MIC); 1.56 µg/mL in [3] (Providencia 1577, Mueller-Hinton agar, 24 hours, 35° C., read-out: MIC); 1.56 µg/mL in [4] (Serratia marcescens 4003, Mueller-Hinton agar, 24 hours, 35° C., read-out: MIC); 3.1 µg/mL in [5] (KY8516, Pseudo. aeruginosa KY 8516, Mueller-Hinton agar, 24 hours, 35° C., read-out: MIC); 0.78 µg/mL in [6] (Pseudo. aeruginosa BMH #10, Mueller-Hinton agar, 24 hours, 35° C., read-out: MIC). Further, the minimum inhibitory concentration (MIC) in assay [7] (Proteus rettgeri U6333, Mueller-Hinton agar, 24 hours, 35° C., read-out: MIC) turned out to be 6.2 µg/mL; in [8] (Staph. aureus Smith, Mueller-Hinton agar, 24 hours, 35° C., read-out: MIC), 0.78 µg/mL; in assay [9] (E. coli JUHL, Mueller-Hinton agar, 24 hours, 35° C., read-out: MIC), 3.1 µg/mL; in [10] (E. coli BL 3676 (Res), Mueller-Hinton agar, 24 hours, 35° C., read-out: MIC), 25 µg/mL; in assay [11], 3.1 µg/mL; in assay [12] (Proteus mirabilis Fin. #9, Mueller-Hinton agar, 24 hours, 35° C., read-out: MIC), 3.1 µg/mL. Also, the MIC in assay [13] (KY8512, Pseudo. aeruginosa KY 8512, Mueller-Hinton agar, 24 hours, 35° C., read-out: MIC) came out at 3.1 µg/mL; in assay [14] (KY4262, Kleb. pneumoniae KY 4262, Mueller-Hinton agar, 24 hours, 35° C., read-out: MIC), 3.1 µg/mL; in [15] (Proteus vulgaris JJ, Mueller-Hinton agar, 24 hours, 35° C., read-out: MIC), 3.1 µg/mL; in assay [16] (Sal. typhimurium Ed. #9, Mueller-Hinton agar, 24 hours, 35° C., read-out: MIC) it was 3.1 µg/mL; in assay [17] (Klebsiella pneumoniae, Kleb. pneumoniae 10031, Mueller-Hinton agar, 24 hours, 35° C., read-out: MIC) it was 1.56 µg/mL; in [18] (Pseudomonas aeruginosa, Pseudo. aeruginosa 209, Mueller-Hinton agar, 24 hours, 35° C., read-out: MIC), 100 µg/mL. Further, the MIC amounted to 6.2 µg/mL in assay [19] (Pseudomonas aeruginosa, Pseudo aeruginosa 27853, Mueller-Hinton agar, 24 hours, 35° C., read-out: MIC) and 1.56 µg/mL in [21] (Escherichia coli, 762, E. coli 76-2, Mueller-Hinton agar, 24 hours, 35° C., read-out: MIC). In addition, the “activity relative to that of fortimicin A sulfate” value in [20] (against many of the susceptible strains tested) is around 200%. In assay [20] (overall, all strains of Table II), the “overall activity relative to that of fortimicin A sulfate” value is on record as “approximately 137%”.
On to `COC1C(O)C(N)C(OC2OC(C(C)N)CCC2N)C(O)C1N(C)C(=O)CN` (stereo not drawn) [Fortimicin A Sulfate, fortimicin A sulfate, reference compound], for which the minimum inhibitory concentration (MIC) was determined as 50 µg/mL in [1] (Enterococcus faecalis, 10541, 24 h); 3.1 µg/mL in assay [2] (Klebsiella aerogenes, 13048, 24 h); 1.56 µg/mL in assay [3] (Providencia, 1577, 24 h); 3.1 µg/mL in assay [4] (Serratia marcescens, 4003, 24 h); 6.2 µg/mL in assay [5] (KY8516, 24 h); 0.78 µg/mL in assay [6] (24 h). Also, the MIC in [7] (U6333, 24 h) turned out to be 12.5 µg/mL; in assay [8] (24 h), 0.78 µg/mL; in [9] (24 h), 3.1 µg/mL; in assay [10] (24 h) it was 25 µg/mL; in assay [11], 6.2 µg/mL; in [12] (Proteus mirabilis, 24 h) it was 3.1 µg/mL. For the same molecule, the minimum inhibitory concentration (MIC) turned out to be 6.2 µg/mL in [13] (KY8512, 24 h); 6.2 µg/mL in assay [14] (KY4262, 24 h); 3.1 µg/mL in assay [15] (Proteus vulgaris, 24 h); 3.1 µg/mL in assay [16] (TYPHIMURIUM, 24 h); 1.56 µg/mL in assay [17] (Klebsiella pneumoniae, 10031, 24 h); 100 µg/mL in [18] (Pseudomonas aeruginosa, 209, 24 h). The MIC in assay [19] (Pseudomonas aeruginosa, 27853, 24 h) came out at 12.5 µg/mL; in assay [21] (Escherichia coli, 762, 24 h), 3.1 µg/mL.

For the origin of these results see US4423210A, “Intermediates for the preparation of 3-demethoxyfortimicins” (Abbott Laboratories, priority 1982, dated 1983).
